Experimental data: patent publication US6855730B2, “3-methylidenyl-2-indolinone modulators of protein kinase” (Sugen, Inc., priority 1998, dated 2005)

Target: T1, 3T3 cell line genetically engineered to express human EGF-R (Homo sapiens, UniProt P00533)
T1 construct: expressed in transfected cells; host or cells: 3T3
Test: EGF-induced BrdU incorporation assay
Format: cell-based
Conditions: read-out: BrdU EGF driven IC50
Description: The cellular/catalytic assays described herein are performed in an ELISA format. The general procedure is as follows: a compound is introduced to cells expressing the test kinase, either naturally or recombinantly, for a selected period of time after which, if the test kinase is a receptor, a ligand known to activate the receptor is added. The cells are lysed and the lysate is transferred to the wells of an ELISA plate previously coated with a specific antibody recognizing the substrate of the enzymatic phosphorylation reaction. Non-substrate components of the cell lysate are washed away and the amount of phosphorylation on the substrate is detected with an antibody specifically recognizing phosphotyrosine compared with control cells that were not contacted with a test compound. The cellular/biologic assays described herein measure the amount of DNA made in response to activation of a test kinase, which is a general measure of a proliferative response. The general procedure for this assay is as follows: a compound is introduced to cells expressing the test kinase, either naturally or recombinantly, for a selected period of time after which, if the test kinase is a receptor, a ligand known to activate the receptor is added. After incubation at least overnight, a DNA labeling reagent such as Bromodeoxyuridine (BrdU) or 3H-thymidine is added. The amount of labeled DNA is detected with either an anti-BrdU antibody or by measuring radioactivity and is compared to control cells not contacted with a test compound. […]
Protocol • (1) Cells are seeded at 8000 cells/well in 10% CS, 2mM Gin in DMEM, in a 96 well plate. Cells are incubated overnight at 37° C. in 5% CO2. • (2) After 24 hours, the cells are washed with PBS, and then are serum starved in serum free medium (0% CS DMEM with 0.1% BSA) for 24 hours. • (3) On day 3, ligand (EGF, 2 nM, prepared in DMEM with 0.1% BSA) and test compounds are added to the cells simultaneously. The negative control wells receive serum free DMEM with 0.1% BSA only, the positive control cells receive the ligand (EGF) but no test compound. Test compounds are prepared in serum free DMEM with ligand in a 96 well plate, and serially diluted for 7 test concentrations. • (4) After 20 hours of ligand activation, diluted BrdU labeling reagent (1:100 in DMEM, 0.1% BSA) is added and the cells are incubated with BrdU (final concentration=10 μM) for 1.5 hours. • (5) After incubation with labeling reagent, the medium is removed by decanting and tapping the inverted plate on a paper towel. FixDenat solution is added (50 μl/well) and the plates are incubated at room temperature for 45 minutes on a plate shaker. • (6) The FixDenat solution is thoroughly removed by decanting and tapping the inverted plate on a paper towel. Milk is added (5% dehydrated milk in PBS, 200 μl/well) as a blocking solution and the plate is incubated for 30 minutes at room temperature on a plate shaker. • (7) The blocking solution is removed by decanting and the wells are washed once with PBS. Anti-BrdU-POD solution (1:100 dilution in PBS, 1% BSA) is added (100 μ/well) and the plate is incubated for 90 minutes at room temperature on a plate shaker. • (8) The antibody conjugate is thoroughly removed by decanting and rinsing the wells 5 times with PBS, and the plate is dried by inverting and tapping on a paper towel. • (9) TMB substrate solution is added (100 μl/well) and incubated for 20 minutes at room temperature on a plate shaker until color development is sufficient for photometric detection. • (10) The absorbance of the samples are measured at 410 nm (in “dual wavelength” mode with a filter reading at 490 nm, as a reference wavelength) on a Dynatech ELISA plate reader.

`COc1ccc(/C=C2/C(=O)Nc3ncccc32)cc1C1CCCC1` [Example 47, 3-(3-Cyclopentyl-4-methoxybenzylidene)-1,3-dihydropyrrolo[2,3-b]pyridin-2-one] was tested, and the IC50 was > 50 µM.

`CCOc1cccc(-c2cc(OC)c(OC)cc2/C=C2/C(=O)Nc3ccccc32)c1` [Example 58, 3-(3′-Ethoxy-4,5-dimethoxybiphenyl-2-ylmethylene)-1,3-dihydroindol-2-one] gave an IC50 of 27.5 µM.

Compound `COc1cc(C=C2C(=O)Nc3ccccc32)c(-c2ccccc2OC)cc1OC` [Example 49, 3-(4,5,2′-Trimethoxybiphenyl-2-ylmethylene)-1,3-dihydroindol-2-one] has an IC50 of 24.1 µM.

For `COc1ccc(C=C2C(=O)Nc3ccccc32)cc1-c1cccc(NC(C)=O)c1` [Example 29, N-[2′-Methoxy-5′-(2-oxo-1,2-dihydroindol-3-ylidenemethyl)-biphenyl-3-yl]-acetamide], the IC50 was 15.2 µM.

With `CC(C)c1cc(/C=C2/C(=O)Nc3ccc(Br)cc32)cc(C(C)C)c1OCCN1CCOCC1` [Example 57, 5-Bromo-3-[3,5-diisopropyl-4-(2-morpholin-4-ylethoxy)benzylidene]-1,3-dihydroindol-2-one] the IC50 was 12.3 µM.

`COc1ccc(C=C2C(=O)Nc3cc(NC(C)=O)ccc32)cc1-c1cccc(NC(C)=O)c1` (mixture of isomers) [Example 63, N-[3-(3′-Acetylamino-6-methoxybiphenyl-3-ylmethylene)-2-oxo-2,3-dihydro-1H-indol-6-yl]-acetamide] showed an IC50 of 30.5 µM.

With `COc1cc(C)c(/C=C2/C(=O)Nc3ccc(F)cc32)cc1C(C)C` [Example 30, 5-Fluoro-3-(5-isopropyl-4-methoxy-2-methyl-benzylidene)-1,3-dihydroindol-2-one] the IC50 was 30.3 µM.

Compound `CCOc1cccc(-c2cc(C=C3C(=O)Nc4ccccc43)ccc2OC)c1` [Example 46, 3-(3′-Ethoxy-6-methoxybiphenyl-3-ylmethylene)-1,3-dihydroindol-2-one] has an IC50 of 45.7 µM.

Compound `COc1ccc(/C=C2/C(=O)Nc3cc(NC(C)=O)ccc32)cc1-c1cccs1` [Example 31, N-[3-(4-Methoxy-3-thiophen-2-ylbenzylidene)-2-oxo-2,3-dihydro-1H-indol-6-yl]-acetamide] has an IC50 of 38.6 µM.
